Data set [1] relates to HCV replicon (Huh-7 luc/neo, NS3-NS5B of HCV type 1b). The data set can be described thus: HCV replicon assay (Huh-Luc, luciferase readout). Format: cell-based. The settings on record: Huh-Luc cells, HCV type 1b replicon, three days incubation, luciferase activity. An excerpt:
The compounds of formula I were examined for activity in the inhibition of HCV RNA replication in a cellular assay aimed at identifying compounds that inhibit a HCV functional cellular replicating cell line, also known as HCV replicons. The cellular assay was based on a bicistronic expression construct, as described by Lohmann et al. (1999), Science vol. 285 pp. 110-113 with modifications described by Krieger et al. (2001), Journal of Virology 75: 4614-4624, in a multi-target screening strategy.
The assay utilized the stably transfected cell line Huh-7 luc/neo (hereafter referred to as Huh-Luc). This cell line harbors an RNA encoding a bicistronic expression construct comprising the wild type NS3-NS5B regions of HCV type 1b translated from an Internal Ribosome Entry Site (IRES) from encephalomyocarditis virus (EMCV), preceded by a reporter portion (FfL-luciferase), and a selectable marker portion (neoR, neomycine phosphotransferase). The construct is bordered by 5′ and 3′ NTRs (non-translated regions) from HCV type 1b. Continued culture of the replicon cells in the presence of G418 (neo^R) is dependent on the replication of the HCV RNA. The stably transfected replicon cells that express HCV RNA, which replicates autonomously and to high levels, encoding inter alia luciferase, were used for screening the antiviral compounds.
The replicon cells were plated in 384 well plates in the presence of the test and control compounds which were added in various concentrations. Following an incubation of three days, HCV replication was measured by assaying luciferase activity (using standard luciferase assay substrates and reagents and a Perkin Elmer ViewLux™ ultraHTS microplate imager). Replicon cells in the control cultures have high luciferase expression in the absence of any inhibitor. The inhibitory activity of the compound on luciferase activity was monitored on the Huh-Luc cells, enabling a dose-response curve for each test compound. EC50 values were then calculated, which value represents the amount of the compound required to decrease the level of detected luciferase activity by 50%, or more specifically, the ability of the genetically linked HCV replicon RNA to replicate.
A general note: A replicon is a self-replicating genome or part of one, used to study replication in cells.

The next data set has as its system Huh7-CMV-Luc cells. Briefly: Cellular toxicity in Huh7-CMV-Luc replicon assay. Format: cell-based. The settings on record: three days incubation, Luc activity, read-out: CC50 (μM) (Huh-7). The method, then: (§1) Cellular toxicity was determined in the Huh7-CMV-Luc replicon assay. Replicon cells (2500 cells/well), stably transformed with a luciferase reporter gene under control of the cytomegalovirus (CMV) constitutive promotor, were cultured in the presence or absence of test compound concentrations. After three days of incubation at 37° C. in a humidified 5% CO2 atmosphere, cell proliferation was quantified by measuring the Luc activity, and expressed as CC50 values (cytotoxicity, 50% inhibitory concentration of cell growth). Tests were performed in 384-well plates.

For data set [2], the system named is wild type human immunodeficiency virus (HIV) strain IIIB. Briefly: HIV assay in MT4 LTR-EGFP cells. It counts as cell-based, HIV-1. Particulars: three days after infection. The method, then:
(§2) Compounds of the invention were tested for their potency against wild type human immunodeficiency virus (HIV). Antiviral activity was evaluated using a cellular assay performed according to the following procedure. The human T-cell line MT4 was engineered with Green Fluorescent Protein (GFP) and a HIV-specific promoter, HIV-1 long terminal repeat (LTR). This cell line, designated MT4 LTR-EGFP, can be used for the in vitro evaluation of anti-HIV activity of investigational compounds. In HIV-1 infected cells, the Tat protein is produced, which upregulates the LTR promotor and eventually leads to stimulation of the GFP reporter production, allowing to measure ongoing HIV-infection fluorometrically. Effective concentration values such as 50% effective concentration (EC50) can be determined and are usually expressed in μM. An EC50 value is defined as the concentration of test compound that reduces the fluorescence of HIV-infected cells by 50%. Monitoring of HIV-1 infection was done using a scanning microscope. Image analysis allows very sensitive detection of viral infection. Measurements were done before cell necrosis, which usually takes place about five days after infection, in particular measurements were performed three days after infection. The column IIIB in the table list the EC50 values against the wild type strain IIIB.

The subject of the next data set is MT-4 cells. Briefly: Cellular toxicity in the HIV cell-line (MT-4). It counts as cell-based, human. As for the experimental part: as §2
(§3) Also the HIV activity is given (EC50 HIV (μM)) and the cellular toxicity in the HIV cell-line (CC50 (μM) (MT-4)).

Data set [3] in a line: Cellular toxicity in Huh7-CMV-Luc replicon assay. Format: cell-based. The settings on record: human, Huh7-CMV-Luc cells, three days incubation, Luc activity; read-out: CC50 (μM) (Huh-7). The method, then:
as §1

Data set [4] in a line: Cellular toxicity in the HIV cell-line (MT-4). It counts as cell-based, human. Particulars: human. As for the experimental part: as §2, §3
[5] abbreviates: Human immunodeficiency virus 1, IIIB, 72 h.

Where only a bound is given, the exact number is not on record here.

Broadly, the EC50 is the concentration giving half of the maximal effect. Higher therefore signals lower potency in that assay. One may read the CC50 as the concentration that lowers cell viability or growth by half. For `C[C@H](NP(=O)(OC[C@H]1O[C@@H](n2ccc(=O)[nH]c2=O)C2(CC2)[C@@H]1O)Oc1ccc(Cl)cc1)C(=O)OCc1ccccc1` (single isomer, unassigned) [Compound 7b], the EC50 was 3.4 µM in data set [1] and over 98 µM in data set [2]. Also, the CC50 is over 98 µM in the data set on Huh7-CMV-Luc cells and over 90 µM in the data set with MT-4 cells.
As to `Cc1ccc(C(C)C)c(OP(=O)(N[C@@H](C)C(=O)OCc2ccccc2)OC[C@H]2O[C@@H](n3ccc(=O)[nH]c3=O)C3(CC3)[C@@H]2O)c1` (stereo partly shown) [Compound 22], the concentration for a half-maximal effect (EC50) in data set [1] (Hepatitis C virus, Huh-7, 72 h) came out at 9.2 µM; in data set [2] (setting [5]), 1.65 µM. In data set [3], the cytotoxic concentration (CC50) at 3 days is over 32 µM. This compound also came in with a CC50 in data set [4] of 2.1 µM.
`CCCCCCCCOC(=O)[C@H](C)NP(=O)(OC[C@H]1O[C@@H](n2ccc(=O)[nH]c2=O)C2(CC2)[C@@H]1O)Oc1ccc(Cl)cc1` (stereo partly shown) [Compound 23]: the EC50 in data set [1] (Hepatitis C virus, Huh-7, 72 h) is 11.2 µM; in data set [2] (setting [5]), over 98 µM. Also, in data set [3], the CC50 at 3 days was over 32 µM. The compound also had a 50% cytotoxic concentration (CC50) in data set [4] of over 30 µM.
Regarding `CCC(C)OC(=O)[C@H](C)NP(=O)(OC[C@H]1O[C@@H](n2ccc(=O)[nH]c2=O)C2(CC2)[C@@H]1O)Oc1ccccc1` (stereo partly shown) [Compound 24], the 50% effective concentration (EC50) in data set [1] (Hepatitis C virus, Huh-7, 72 h) is 12.4 µM; in data set [2] (setting [5]), over 98 µM. For the same compound, in data set [3], the CC50 at 3 days is over 98 µM. In data set [4], the CC50 is over 98 µM.
As to `Cc1ccc(C(C)C)cc1OP(=O)(N[C@@H](C)C(=O)OCc1ccccc1)OC[C@H]1O[C@@H](n2ccc(=O)[nH]c2=O)C2(CC2)[C@@H]1O` (stereo partly shown) [Compound 25], the 50% effective concentration (EC50) in data set [1] (Hepatitis C virus, Huh-7, 72 h) was 23.1 µM; in data set [2] (setting [5]) it was over 98 µM. In addition, the 50% cytotoxic concentration (CC50) at 3 days in data set [3] was over 32 µM. The compound further showed a cytotoxic concentration (CC50) in data set [4] of 23 µM.
`CCOC(=O)C1(NP(=O)(OC[C@H]2O[C@@H](n3ccc(=O)[nH]c3=O)C3(CC3)[C@@H]2O)Oc2ccc(Cl)cc2)CCC1` (stereo partly shown) [Compound 26]: the 50% effective concentration (EC50) in data set [1] (Hepatitis C virus, Huh-7, 72 h) is 73.7 µM; in data set [2] (setting [5]), over 98 µM. Further, the cytotoxic concentration (CC50) at 3 days in data set [3] was over 98 µM. In data set [4], this compound had a CC50 of over 98 µM.
As for `COC(=O)C(C)(C)NP(=O)(OC[C@H]1O[C@@H](n2ccc(=O)[nH]c2=O)C2(CC2)[C@@H]1O)Oc1ccccc1` (stereo partly shown) [Compound 27], the EC50 in data set [1] (Hepatitis C virus, Huh-7, 72 h) is 91.4 µM; in data set [2] (setting [5]), over 98 µM. Moreover, in data set [3], the half-maximal cytotoxic concentration (CC50) at 3 days is over 98 µM. In data set [4], this compound returned a CC50 of over 98 µM.
With `CC(C)OC(=O)C(C)(C)NP(=O)(OC[C@H]1O[C@@H](n2ccc(=O)[nH]c2=O)C2(CC2)[C@@H]1O)Oc1ccccc1` (stereo partly shown) [Compound 28], the EC50 is over 98 µM in data set [1] (Hepatitis C virus, Huh-7, 72 h) and over 98 µM in data set [2] (setting [5]). The CC50 at 3 days in data set [3] is over 98 µM. In addition, the CC50 in data set [4] was over 98 µM.
In the case of `CCOC(=O)C1(NP(=O)(OC[C@H]2O[C@@H](n3ccc(=O)[nH]c3=O)C3(CC3)[C@@H]2O)Oc2ccccc2)CC1` (stereo partly shown) [Compound 29], the 50% effective concentration (EC50) was over 98 µM in data set [1] (Hepatitis C virus, Huh-7, 72 h) and over 98 µM in data set [2] (setting [5]). Also, in data set [3], the CC50 at 3 days is over 98 µM. In addition, in data set [4], the half-maximal cytotoxic concentration (CC50) is over 98 µM.
Take `C[C@H](NP(=O)(OC[C@H]1O[C@@H](n2ccc(=O)[nH]c2=O)C2(CC2)[C@@H]1O)Oc1ccccc1)C(=O)OC(C)(C)C` (stereo partly shown) [Compound 30]: the EC50 was over 98 µM in data set [1] (Hepatitis C virus, Huh-7, 72 h) and over 98 µM in data set [2] (setting [5]). The CC50 at 3 days in data set [3] is over 98 µM. Also, the half-maximal cytotoxic concentration (CC50) in data set [4] was over 98 µM.
`CC[C@H](NP(=O)(OC[C@H]1O[C@@H](n2ccc(=O)[nH]c2=O)C2(CC2)[C@@H]1O)Oc1ccccc1)C(=O)OC(C)C` (stereo partly shown) [Compound 31]: the EC50 in data set [1] (Hepatitis C virus, Huh-7, 72 h) was over 98 µM; in data set [2] (setting [5]), over 95 µM. The half-maximal cytotoxic concentration (CC50) at 3 days in data set [3] was over 98 µM. The same compound returned a CC50 in data set [4] of over 98 µM.
Consider `CCOC(=O)C1(NP(=O)(OC[C@H]2O[C@@H](n3ccc(=O)[nH]c3=O)C3(CC3)[C@@H]2O)Oc2ccccc2)CCC1` (stereo partly shown) [Compound 32], for which the EC50 was over 98 µM in data set [1] (Hepatitis C virus, Huh-7, 72 h) and over 98 µM in data set [2] (setting [5]). The CC50 at 3 days in data set [3] is over 98 µM. In data set [4], this compound showed a cytotoxic concentration (CC50) of over 98 µM.
In the case of `CCOC(=O)C1(NP(=O)(OC[C@H]2O[C@@H](n3ccc(=O)[nH]c3=O)C3(CC3)[C@@H]2O)Oc2ccc(Cl)cc2)CC1` (stereo partly shown) [Compound 33], the concentration for a half-maximal effect (EC50) is over 98 µM in data set [1] (Hepatitis C virus, Huh-7, 72 h) and over 98 µM in data set [2] (setting [5]). Besides, the CC50 at 3 days in data set [3] is over 98 µM. This compound displayed a CC50 in data set [4] of over 98 µM.

For the origin of these results see patent publication US8399429B2, “Uracyl cyclopropyl nucleotides” (Janssen Products, LP, priority 2008, dated 2013).
